Data published in patent publication US20240018125A1, “CYCLIC ISOTHIOUREA DERIVATIVES AS CXCR4 MODULATORS” (ERMIUM THERAPEUTICS, priority 2020, published 2024).
Where a name gives a salt, the structure may show the parent alone.

Tested on: peripheral blood mononuclear cells (PBMCs) from healthy donors
Experiment: IFN production by R848-activated PBMCs, quantified with twINNE luciferase reporter cell line
Type: cell-based, human
Details: Homo sapiens, PBMC; read-out: IC50 of anti-inflammatory activity (IFN production by activated PBMCs)
Experimental: The blood from healthy donors was obtained from “Etablissement Français du Sang” (convention #19/EFS/029), Paris, France.
In vitro experiments were performed using human peripheral blood mononuclear cells (PBMCs) isolated by density centrifugation from peripheral blood leukocyte separation medium, lymphoprep (Stemcell Technologies).
PBMCs were cultured in RPMI 1640 (Sigma-Aldrich, MO, USA) containing 10% heat-inactivated fetal bovine serum (Sigma-Aldrich, MO, USA) at 37° C./5% CO2.
The PBMCs used herein were prepared as described in part A “immune cells preparation”, above. PBMCs were seeded at 4.10^6/mL. Cells were pre-treated with different concentration of examples according to the invention. Cells were then stimulated with the TLR7/8 agonist resiquimod—R848 (Sigma-Aldrich, MO, USA) at 5 μg/mL.
To quantify the secretion of functional IFN, a biological assay based on a stable cell line where luciferase reporter gene is controlled by five Interferon-Stimulated Response Elements (twINNE cell line) was used. First, supernatants of R848-stimulated PBMCs (see part B above) were harvested after 24 h of stimulation and frozen at −20° C. for storage. Then, supernatants were dispensed in culture wells of a 96-well plate containing 35.103 twINNE cells per well in Dulbecco's Modified Eagle's Medium supplemented with 10% Foetal Bovine Serum, 100 U/mL Penicillin and 100 μg/mL Streptomycin (1% Pen-Strep) and 1 mM glutamine (Sigma-Aldrich, MO, USA) at 37° C./5% CO2. After 24 h of culture, luciferase activity was determined by adding 60 μL of Bright-Glo reagents (Promega, Wisconsin, USA) to culture wells and measuring bioluminescence with EnSpire Multimode Plate Reader (PerkinElmer, Massachusetts, USA). When stated, for IC50 calculation, dose-response curves fitted using the nonlin fit (variable slope) analysis in GraphPad Prism software (GraphPad Software, Califronia, USA).
IFN production was quantified (as specified in Materials and Methods, part C “quantification of interferon secretion”) using twINNE reporter cell line.

SMILES	IC50
c1ccc2c(c1)CN=C(SCCN1CCOCC1)N2 [Example 155, 4-(2-((1,4-dihydroquinazolin-2-yl)thio)ethyl)morpholine dihydrochloride]	> 32 µM
c1ccc2c(c1)CN=C(SCCN1[C@@H]3CCC[C@H]1CC3)N2 [Example 133, 2-((2-((1R,5S)-8-azabicyclo[3.2.1]octan-8-yl)ethyl)thio)-3,4-dihydroquinazoline dihydrochloride]	≤ 10 µM
CC1(C)N=C(SCC2=CSC3=Nc4cccc(F)c4CN23)Nc2ccccc21 [Example 73, 3-(((4,4-dimethyl-1,4-dihydroquinazolin-2-yl)thio)methyl)-6-fluoro-5H-thiazolo[2,3-b]quinazoline dihydrochloride]	> 32 µM
c1ccc2c(c1)CN(CCSC1=NCc3ccccc3N1)C2 [Example 71, 2-((2-(isoindolin-2-yl)ethyl)thio)-3,4-dihydroquinazoline dihydrochloride]	10 to 32 µM
Fc1ccc2c(c1)N=C1SC=C(CSC3=NCc4ccccc4N3)N1C2 [Example 82, 3-(((1,4-dihydroquinazolin-2-yl)thio)methyl)-8-fluoro-5H-thiazolo[2,3-b]quinazoline dihydrochloride]	≤ 10 µM
CC1(C)N=C(SCC2=CSC3=NC(Cc4ccccc4)CN23)Nc2ccccc21 (centres unmarked) [Example 87, 6-benzyl-3-(((4,4-dimethyl-1,4-dihydroquinazolin-2-yl)thio)methyl)-5,6-dihydroimidazo[2,1-b]thiazole dihydrochloride]	≤ 10 µM
Fc1ccc2c(c1)CN=C(SCC1=CSC3=Nc4ccc(Cl)cc4CN13)N2 [Example 83, 7-chloro-3-(((6-fluoro-1,4-dihydroquinazolin-2-yl)thio)methyl)-5H-thiazolo[2,3-b]quinazoline dihydrochloride]	≤ 10 µM
c1ccc2c(c1)CN=C(SCCN1CCCCC1)N2 [Example 91, 2-((2-(piperidin-1-yl)ethyl)thio)-1,4-dihydroquinazoline dihydrochloride]	≤ 10 µM
c1ccc(CC2CN=C(SCCN3CCCC3)N2)cc1 (centres unmarked) [Example 54, 5-benzyl-2-((2-(pyrrolidin-1-yl)ethyl)thio)-4,5-dihydro-1H-imidazole dihydrochloride]	10 to 32 µM
CN1CCN=C1SCC1=CSC2=Nc3ccccc3CN12 [Example 36, 3-(((1-methyl-4,5-dihydro-1H-imidazol-2-yl)thio)methyl)-5H-thiazolo[2,3-b]quinazoline dihydrochloride]	≤ 10 µM
Clc1ccc2c(c1)CN1C(=N2)SC(Br)=C1CSC1=NCc2ccccc2N1 [Example 79, 2-bromo-7-chloro-3-(((1,4-dihydroquinazolin-2-yl)thio)methyl)-5H-thiazolo[2,3-b]quinazoline dihydrochloride]	≤ 10 µM
Ic1cc2c(c(I)c1I)NC(SCCN1CCCC1)=NC2 [Example 134, 6,7,8-triiodo-2-((2-(pyrrolidin-1-yl)ethyl)thio)-1,4-dihydroquinazoline dihydrochloride]	≤ 10 µM
C1=C(CSC2=NCC(C3CCCCC3)N2)N2Cc3ccccc3CN=C2S1 (centres unmarked) [Example 26, 3-(((4-cyclohexyl-4,5-dihydro-1H-imidazol-2-yl)thio)methyl)-5,10-dihydrobenzo[e]thiazolo[3,2-a][1,3]diazepine dihydrochloride]	≤ 10 µM
CC1(C)N=C(SCCN2CCCC2)Nc2ccccc21 [Example 78, 4,4-dimethyl-2-((2-(pyrrolidin-1-yl)ethyl)thio)-1,4-dihydroquinazoline dihydrochloride]	> 32 µM
c1ccc(CC2CN=C(SCc3ccncc3)N2)cc1 (centres unmarked) [Example 56, 4-(((5-benzyl-4,5-dihydro-1H-imidazol-2-yl)thio)methyl)pyridine dihydrochloride]	10 to 32 µM
c1ccc2c(c1)CN=C(SC1CCCC[C@H]1N1CCCC1)N2 (stereo partly drawn) [Example 148, 2-(((2R)-2-(pyrrolidin-1-yl)cyclohexyl)thio)-1,4-dihydroquinazoline dihydrochloride]	≤ 10 µM
c1ccc(C2CCCN2CCSC2=NCc3ccccc3N2)cc1 (centres unmarked) [Example 128, 2-((2-(2-phenylpyrrolidin-1-yl)ethyl)thio)-1,4-dihydroquinazoline dihydrochloride]	≤ 10 µM
CN1CCC(SC2=NCc3ccccc3N2)C1 (centres unmarked) [Example 100, 2-((1-methylpyrrolidin-3-yl)thio)-1,4-dihydroquinazoline dihydrochloride]	≤ 10 µM
CC1(c2ccccc2)CN2C(CSC3=NCc4ccccc4N3)=CSC2=N1 (centres unmarked) [Example 38, 3-(((3,4-dihydroquinazolin-2-yl)thio)methyl)-6-methyl-6-phenyl-5,6-dihydroimidazo[2,1-b]thiazole dihydrochloride]	≤ 10 µM
CC1(C)CN2C(CSC3=NCc4cc(Cl)ccc4N3)=CSC2=N1 [Example 1, 3-(((6-chloro-1,4-dihydroquinazolin-2-yl)thio)methyl)-6,6-dimethyl-5,6-dihydroimidazo[2,1-b]thiazole dihydrochloride]	≤ 10 µM
C[C@@H](CSC1=NCc2cc(Cl)ccc2N1)N1CCCC1 [Example 166, (S)-6-chloro-2-((2-(pyrrolidin-1-yl)propyl)thio)-1,4-dihydroquinazoline dihydrochloride]	≤ 10 µM
Clc1ccc2c(c1)CN1C(CSC3=NCc4cc(Br)ccc4N3)=CSC1=N2 [Example 67, 3-(((6-bromo-1,4-dihydroquinazolin-2-yl)thio)methyl)-7-chloro-5H-thiazolo[2,3-b]quinazoline dihydrochloride]	10 to 32 µM
C1=C(CSC2=N[C@@H](c3ccccc3)[C@H](c3ccccc3)N2)N2Cc3ccccc3CN=C2S1 [Example 24, 3-((((4S,5S)-4,5-diphenyl-4,5-dihydro-1H-imidazol-2-yl)thio)methyl)-5,10-dihydrobenzo[e]thiazolo[3,2-a][1,3]diazepine dihydrochloride]	≤ 10 µM
Fc1cccc2c1CN1C(CSC3=NCc4ccccc4N3)=CSC1=N2 [Example 18, 3-(((3,4-dihydroquinazolin-2-yl)thio)methyl)-6-fluoro-5H-thiazolo[2,3-b]quinazoline dihydrochloride]	≤ 10 µM
c1cncc(CSC2=NCc3ccccc3CN2)c1 [Example 193, 3-((pyridin-3-ylmethyl)thio)-2,5-dihydro-1H-benzo[e][1,3]diazepine]	> 32 µM
CC1(C)CN2C(CSC3=NCc4ccccc4N3)=CSC2=N1 [Example 3, 3-(((3,4-dihydroquinazolin-2-yl)thio)methyl)-6,6-dimethyl-5,6-dihydroimidazo[2,1-b]thiazole dihydrochloride]	≤ 10 µM
CN1CCN=C1SCC1=CSC2=Nc3ccc(Cl)cc3CN12 [Example 45, 7-chloro-3-(((1-methyl-4,5-dihydro-1H-imidazol-2-yl)thio)methyl)-5H-thiazolo[2,3-b]quinazoline dihydrochloride]	≤ 10 µM
Clc1ccc(CC2CN3C(CSC4=NCc5ccccc5N4)=CSC3=N2)cc1 (centres unmarked) [Example 94, 6-(4-chlorobenzyl)-3-(((1,4-dihydroquinazolin-2-yl)thio)methyl)-5,6-dihydroimidazo[2,1-b]thiazole dihydrochloride]	≤ 10 µM
IC1=C(CSC2=NCc3ccccc3N2)N2CC(Cc3ccccc3)N=C2S1 (centres unmarked) [Example 110, 6-benzyl-3-(((1,4-dihydroquinazolin-2-yl)thio)methyl)-2-iodo-5,6-dihydroimidazo[2,1-b]thiazole dihydrochloride]	≤ 10 µM
